Assay results published in patent EP0326331B1, “Substituted quinolines and cinnolines” (Dow AgroSciences LLC, priority 1988, dated 1989).

Experiments:
Type in all cases: in vivo
[1] = test system: Erysiphe graminis tritici (powdery mildew); assay: Test 1 greenhouse foliar spray screen, powdery mildew on wheat; conditions: disease control rating, foliar spray on wheat, 400 ppm (+++ at 100 ppm)
[2] = test system: Pyricularia oryzae (rice blast); assay: whole plant or invertebrate; conditions: disease control rating, foliar spray on rice, 400 ppm (+++ at 100 ppm)
[3] = test system: Puccinia recondita tritici (leaf rust); assay: Test 1 greenhouse foliar spray screen, leaf rust on wheat; conditions: disease control rating, foliar spray on wheat, 400 ppm (+++ at 100 ppm)
[4] = test system: Botrytis cinerea (gray mold); assay: Test 1 greenhouse foliar spray screen, gray mold on grape berries; conditions: disease control rating, spray on grape berries, 400 ppm (+++ at 100 ppm)
[5] = test system: Pseudoperonospora cubensis (downy mildew); assay: Test 1 greenhouse foliar spray screen, downy mildew on squash; conditions: for DOWN MDEW: disease control rating, foliar spray on squash, 400 ppm (+++ at 100 ppm)
[6] = test system: Cercospora beticola (leaf spot); assay: Test 1 greenhouse foliar spray screen, leaf spot on sugar beet; conditions: disease control rating, foliar spray on sugar beet, 400 ppm (+++ at 100 ppm)
[7] = test system: Venturia inaequalis (apple scab); assay: Test 1 greenhouse foliar spray screen, apple scab on apple seedling; conditions: disease control rating, foliar spray on apple seedling, 400 ppm (+++ at 100 ppm)
[8] = test system: Septoria tritici (leaf blotch); assay: Test 1 greenhouse foliar spray screen, leaf blotch on wheat; conditions: disease control rating, foliar spray on wheat, 400 ppm (+++ at 100 ppm)
[9] = test system: southern armyworm (Spodopetra eridania Cramer); assay: Mite/insect screen, SAW; conditions: percent mortality, SAW; for mortality at 200 ppm / mortality at 400 ppm: Spodoptera eridania, read-out: SAW RESULTS %; for mortality at 200 ppm / SAW RESULTS %: SM & MA RATE 200 PPM; for mortality at 400 ppm: SM & MA RATE 400 PPM
Outline: (§1)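 Activity is expressed as percent mortality at the indicated spray concentrations. Plants are sprayed to runoff on upper and lower leaf surfaces with aqueous dilutions of an acetone/alcohol emulsifiable formulation, then dried for one hour.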

[10] = test system: Twospotted spider mites (Tetranychus urticae Koch); assay: Mite/insect screen, SM; conditions: percent mortality, SAW; for mortality at 200 ppm / mortality at 400 ppm: Tetranychus urticae, read-out: SM RESULTS %; for mortality at 200 ppm / SM RESULTS %: SM & MA RATE 200 PPM; for mortality at 400 ppm: SM & MA RATE 400 PPM
Outline: as §1

[11] = test system: melon aphids (Aphis gossypii Glover); assay: Mite/insect screen, MA; conditions: percent mortality, SAW; for mortality at 200 ppm / mortality at 400 ppm: Aphis gossypii, read-out: MA RESULTS %; for mortality at 200 ppm / MA RESULTS %: SM & MA RATE 200 PPM; for mortality at 400 ppm: SM & MA RATE 400 PPM
Outline: as §1

corn rootworm = assay: Mite/insect screen, CRW; conditions: percent mortality; for mortality at 12 ppm / CRW RESULTS %: CRW RATE 12.00 PPM; for mortality at 12 ppm / mortality at 24 ppm: read-out: CRW RESULTS %; for mortality at 24 ppm: CRW RATE 24.00 PPM
Outline: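 Each compound, taken up in an emulsifier-containing acetone/alcohol mixture and diluted in water to the stated concentrations, was assessed for percent kill following standard exposure times.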

Cc1cc(C)c2nccc(NCCC3=CCCCC3)c2c1 [Example 144, N-[2-(1-cyclohexenyl)ethyl]-6,8-dimethyl-4-quinolinamine]
POWD MDEW [1]: - (0-19% control at 400 ppm) | RICE BLAST [2]: + (20-89% control at 400 ppm) | LEAF RUST [3]: ++ (90-100% control at 400 ppm) | GRAY MOLD [4]: - (0-19% control at 400 ppm) | DOWN MDEW [5]: +++ (90-100% control at 100 ppm) | LEAF SPOT [6]: + (20-89% control at 400 ppm) | APPL SCAB [7]: + (20-89% control at 400 ppm) | LEAF BLOT [8]: - (0-19% control at 400 ppm) | mortality at 200 ppm [9]: 0% | mortality at 400 ppm [9]: 0% | mortality at 200 ppm [10]: 0% | mortality at 400 ppm [10]: 0% | mortality at 200 ppm [11]: 0% | mortality at 400 ppm [11]: 0% | mortality at 12 ppm (corn rootworm): 0% | mortality at 24 ppm (corn rootworm): 0%

CCc1ccc2nccc(NCCC3=CCCCC3)c2c1 [Example 145, N-[2-(1-cyclohexenyl)ethyl]-6-ethyl-4-quinolinamine]
POWD MDEW [1]: - (0-19% control at 400 ppm) | RICE BLAST [2]: + (20-89% control at 400 ppm) | LEAF RUST [3]: + (20-89% control at 400 ppm) | GRAY MOLD [4]: - (0-19% control at 400 ppm) | DOWN MDEW [5]: +++ (90-100% control at 100 ppm) | LEAF SPOT [6]: + (20-89% control at 400 ppm) | APPL SCAB [7]: - (0-19% control at 400 ppm) | LEAF BLOT [8]: - (0-19% control at 400 ppm) | mortality at 200 ppm [9]: 0% | mortality at 400 ppm [9]: 0% | mortality at 200 ppm [10]: 0% | mortality at 400 ppm [10]: 0% | mortality at 200 ppm [11]: 0% | mortality at 400 ppm [11]: 0% | mortality at 12 ppm (corn rootworm): 0% | mortality at 24 ppm (corn rootworm): 0%

c1csc(CCNc2ccnc3ccccc23)c1 [Example 147, N-[2-(2-thienyl)ethyl]-4-quinolinamine]
POWD MDEW [1]: - (0-19% control at 400 ppm) | RICE BLAST [2]: + (20-89% control at 400 ppm) | LEAF RUST [3]: + (20-89% control at 400 ppm) | GRAY MOLD [4]: - (0-19% control at 400 ppm) | DOWN MDEW [5]: +++ (90-100% control at 100 ppm) | LEAF SPOT [6]: - (0-19% control at 400 ppm) | APPL SCAB [7]: - (0-19% control at 400 ppm) | LEAF BLOT [8]: - (0-19% control at 400 ppm) | mortality at 200 ppm [9]: 0% | mortality at 200 ppm [10]: 0% | mortality at 200 ppm [11]: 0% | mortality at 12 ppm (corn rootworm): 0%

c1ccc2c(NCCc3ccsc3)ccnc2c1 [Example 148, N-[2-(3-thienyl)ethyl]-4-quinolinamine]
POWD MDEW [1]: - (0-19% control at 400 ppm) | RICE BLAST [2]: + (20-89% control at 400 ppm) | LEAF RUST [3]: + (20-89% control at 400 ppm) | GRAY MOLD [4]: - (0-19% control at 400 ppm) | DOWN MDEW [5]: ++ (90-100% control at 400 ppm) | LEAF SPOT [6]: + (20-89% control at 400 ppm) | APPL SCAB [7]: - (0-19% control at 400 ppm) | LEAF BLOT [8]: - (0-19% control at 400 ppm) | mortality at 200 ppm [9]: 0% | mortality at 200 ppm [10]: 0% | mortality at 200 ppm [11]: 0% | mortality at 12 ppm (corn rootworm): 0%

Fc1cc(F)c2nccc(NCCc3cccs3)c2c1 [Example 149, 6,8-difluoro-N-[2-(2-thienyl)ethyl]-4-quinolinamine]
POWD MDEW [1]: + (20-89% control at 400 ppm) | RICE BLAST [2]: + (20-89% control at 400 ppm) | LEAF RUST [3]: ++ (90-100% control at 400 ppm) | GRAY MOLD [4]: - (0-19% control at 400 ppm) | DOWN MDEW [5]: ++ (90-100% control at 400 ppm) | LEAF SPOT [6]: +++ (90-100% control at 100 ppm) | APPL SCAB [7]: - (0-19% control at 400 ppm) | LEAF BLOT [8]: + (20-89% control at 400 ppm) | mortality at 200 ppm [9]: 0% | mortality at 200 ppm [10]: 0% | mortality at 200 ppm [11]: 0% | mortality at 12 ppm (corn rootworm): 0%

Fc1cc(F)c2nccc(NCCc3ccsc3)c2c1 [Example 150, 6,8-difluoro-N-[2-(3-thienyl)ethyl]-4-quinolinamine]
POWD MDEW [1]: + (20-89% control at 400 ppm) | RICE BLAST [2]: + (20-89% control at 400 ppm) | LEAF RUST [3]: ++ (90-100% control at 400 ppm) | GRAY MOLD [4]: - (0-19% control at 400 ppm) | DOWN MDEW [5]: ++ (90-100% control at 400 ppm) | LEAF SPOT [6]: +++ (90-100% control at 100 ppm) | APPL SCAB [7]: - (0-19% control at 400 ppm) | LEAF BLOT [8]: +++ (90-100% control at 100 ppm) | mortality at 200 ppm [9]: 0% | SAW RESULTS % [9]: 0% | mortality at 200 ppm [10]: 0% | SM RESULTS % [10]: 0% | mortality at 200 ppm [11]: 0% | MA RESULTS % [11]: 0% | CRW RESULTS % (corn rootworm): 0% | mortality at 12 ppm (corn rootworm): 0%

c1ccc2c(CCNc3ccnc4ccccc34)cccc2c1 [Example 151, N-[2-(1-naphthyl)ethyl]-4-quinolinamine]
POWD MDEW [1]: + (20-89% control at 400 ppm) | RICE BLAST [2]: + (20-89% control at 400 ppm) | LEAF RUST [3]: ++ (90-100% control at 400 ppm) | GRAY MOLD [4]: - (0-19% control at 400 ppm) | DOWN MDEW [5]: +++ (90-100% control at 100 ppm) | LEAF SPOT [6]: + (20-89% control at 400 ppm) | APPL SCAB [7]: - (0-19% control at 400 ppm) | LEAF BLOT [8]: + (20-89% control at 400 ppm) | mortality at 200 ppm [9]: 0% | mortality at 200 ppm [10]: 0% | mortality at 200 ppm [11]: 0% | mortality at 12 ppm (corn rootworm): 0%

c1ccc2cc(CCNc3ccnc4ccccc34)ccc2c1 [Example 152, N-[2-(2-naphthyl)ethyl]-4-quinolinamine]
POWD MDEW [1]: ++ (90-100% control at 400 ppm) | RICE BLAST [2]: +++ (90-100% control at 100 ppm) | LEAF RUST [3]: ++ (90-100% control at 400 ppm) | GRAY MOLD [4]: - (0-19% control at 400 ppm) | DOWN MDEW [5]: +++ (90-100% control at 100 ppm) | LEAF SPOT [6]: +++ (90-100% control at 100 ppm) | APPL SCAB [7]: - (0-19% control at 400 ppm) | LEAF BLOT [8]: +++ (90-100% control at 100 ppm) | mortality at 200 ppm [9]: 0% | SAW RESULTS % [9]: 0% | mortality at 200 ppm [10]: 0% | SM RESULTS % [10]: 0% | mortality at 200 ppm [11]: 0% | MA RESULTS % [11]: 0% | CRW RESULTS % (corn rootworm): 0% | mortality at 12 ppm (corn rootworm): 0%

FC(F)(F)c1ccc2c(NCCc3cccs3)ccnc2c1 [Example 153, N-[2-(2-thienyl)ethyl]-7-(trifluoromethyl)-4-quinolinamine]
POWD MDEW [1]: + (20-89% control at 400 ppm) | RICE BLAST [2]: ++ (90-100% control at 400 ppm) | LEAF RUST [3]: ++ (90-100% control at 400 ppm) | GRAY MOLD [4]: - (0-19% control at 400 ppm) | DOWN MDEW [5]: + (20-89% control at 400 ppm) | LEAF SPOT [6]: - (0-19% control at 400 ppm) | APPL SCAB [7]: - (0-19% control at 400 ppm) | LEAF BLOT [8]: - (0-19% control at 400 ppm) | mortality at 200 ppm [9]: 0% | mortality at 200 ppm [10]: 0% | mortality at 200 ppm [11]: 0% | mortality at 12 ppm (corn rootworm): 0%

Fc1cccc2c(NCCc3nc(-c4ccccc4)cs3)ccnc12 [Example 154, 8-fluoro-N-[2-(4-phenyl-2-thiazolyl)ethyl]-4-quinolinamine]
POWD MDEW [1]: ++ (90-100% control at 400 ppm) | RICE BLAST [2]: + (20-89% control at 400 ppm) | LEAF RUST [3]: +++ (90-100% control at 100 ppm) | GRAY MOLD [4]: - (0-19% control at 400 ppm) | DOWN MDEW [5]: +++ (90-100% control at 100 ppm) | activity against downy mildew ([5]; summary statement in the description): particularly excellent activity | LEAF SPOT [6]: + (20-89% control at 400 ppm) | APPL SCAB [7]: + (20-89% control at 400 ppm) | LEAF BLOT [8]: + (20-89% control at 400 ppm) | mortality at 200 ppm [9]: 0% | SAW RESULTS % [9]: 0% | mortality at 200 ppm [10]: 0% | SM RESULTS % [10]: 0% | mortality at 200 ppm [11]: 0% | MA RESULTS % [11]: 0% | CRW RESULTS % (corn rootworm): 0% | mortality at 12 ppm (corn rootworm): 0%
